Test results reported in ChEMBL document CHEMBL1131500, “Novel biologically active nonpeptidic inhibitors of myristoylCoA:protein N-myristoyltransferase” (J Med Chem, 1998).
Converted amounts (≈) assume the structure as drawn.

Tests used:
Candida albicans [1] = experiment: the fungicidal activity against Candida albicans was reported; format: functional
[2] = biological target: T1, Peptide N-myristoyltransferase (Homo sapiens, UniProt P30419+O60551); experiment: compound was tested for the inhibition potency against human N-myristoyltransferase (NMT) using peptide substrate GNAASARR-NH2 at its apparent Km and myristoylCoA at 1 uM; format: protein assay
T1 sequence (P30419 whole entry): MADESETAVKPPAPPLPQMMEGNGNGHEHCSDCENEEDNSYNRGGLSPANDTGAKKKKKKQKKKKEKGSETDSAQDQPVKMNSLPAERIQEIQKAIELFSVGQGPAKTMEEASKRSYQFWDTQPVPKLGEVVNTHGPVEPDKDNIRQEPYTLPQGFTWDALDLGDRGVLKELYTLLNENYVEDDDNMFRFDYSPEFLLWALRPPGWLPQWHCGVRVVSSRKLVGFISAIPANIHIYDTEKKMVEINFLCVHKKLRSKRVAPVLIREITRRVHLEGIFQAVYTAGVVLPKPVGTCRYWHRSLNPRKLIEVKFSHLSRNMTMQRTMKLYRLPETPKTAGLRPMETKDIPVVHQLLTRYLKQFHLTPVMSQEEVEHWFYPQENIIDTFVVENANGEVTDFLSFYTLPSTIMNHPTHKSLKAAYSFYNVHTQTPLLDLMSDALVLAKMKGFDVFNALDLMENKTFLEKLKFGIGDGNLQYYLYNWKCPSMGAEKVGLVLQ
T1 sequence (O60551 whole entry): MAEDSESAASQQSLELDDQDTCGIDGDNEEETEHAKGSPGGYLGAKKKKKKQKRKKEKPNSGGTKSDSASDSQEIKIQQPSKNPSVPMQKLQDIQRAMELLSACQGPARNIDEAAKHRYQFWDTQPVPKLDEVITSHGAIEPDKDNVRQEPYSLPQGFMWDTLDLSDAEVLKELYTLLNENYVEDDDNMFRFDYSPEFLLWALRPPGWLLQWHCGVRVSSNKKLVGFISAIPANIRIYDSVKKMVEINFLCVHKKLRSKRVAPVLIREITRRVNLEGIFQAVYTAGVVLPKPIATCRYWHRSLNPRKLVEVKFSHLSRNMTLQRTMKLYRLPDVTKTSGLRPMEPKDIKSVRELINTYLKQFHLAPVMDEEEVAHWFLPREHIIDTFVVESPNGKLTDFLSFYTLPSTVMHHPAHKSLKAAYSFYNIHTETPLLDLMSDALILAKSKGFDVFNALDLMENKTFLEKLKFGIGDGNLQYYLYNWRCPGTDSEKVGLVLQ

[3] = biological target: T2, Glycylpeptide N-tetradecanoyltransferase (Candida albicans (strain SC5314 / ATCC MYA-2876) (Yeast), UniProt P30418); experiment: compound was tested for the inhibition potency against Candida albicans N-myristoyltransferase (NMT) using peptide substrate GNAASARR-NH2 at its apparent Km and myristoylCoA at 1 uM
T2 sequence (P30418 whole entry): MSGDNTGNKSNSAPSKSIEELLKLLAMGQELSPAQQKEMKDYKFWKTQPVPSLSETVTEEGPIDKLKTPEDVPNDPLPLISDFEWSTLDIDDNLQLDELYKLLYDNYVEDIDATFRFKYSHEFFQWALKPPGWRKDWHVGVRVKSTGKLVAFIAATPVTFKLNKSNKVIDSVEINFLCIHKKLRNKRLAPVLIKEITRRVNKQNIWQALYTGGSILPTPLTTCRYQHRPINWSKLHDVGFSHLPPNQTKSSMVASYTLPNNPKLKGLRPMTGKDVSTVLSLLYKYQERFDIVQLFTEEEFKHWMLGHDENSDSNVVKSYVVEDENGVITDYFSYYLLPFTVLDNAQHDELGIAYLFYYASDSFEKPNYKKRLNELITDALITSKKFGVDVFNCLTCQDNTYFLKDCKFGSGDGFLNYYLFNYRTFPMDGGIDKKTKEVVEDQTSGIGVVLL

Candida albicans [4] = experiment: compound was tested for the effective concentration against Candida albicans for 24 hr; format: functional, organism-based
[5] = biological target: T2, Glycylpeptide N-tetradecanoyltransferase; experiment: Compound was tested for the inhibition potency against Candida albicans N-myristoyltransferase (NMT) using peptide substrate GNAASARR-NH2 at its apparent Km and myristoylCoA at 1 uM
[6] = biological target: T1, Peptide N-myristoyltransferase; experiment: Compound was tested for the inhibition potency against human N-myristoyltransferase (NMT) using peptide substrate GNAASARR-NH2 at its apparent Km and myristoylCoA at 1 uM; format: protein assay
Candida albicans [7] = experiment: Compound was tested for the effective concentration against Candida albicans for 24 hr; format: functional, organism-based
[8] = biological target: T2, Glycylpeptide N-tetradecanoyltransferase; experiment: The Compound was tested for the inhibition potency against Candida albicans N-myristoyltransferase (NMT) and reported as apparent Ki

Cc1nccn1CCCCc1ccc(CC(=O)N[C@@H](CO)Cc2ccc(OCCC3CCCCC3)c(CCCN)c2)cc1
MFC (Candida albicans [1]): 250 µM (≈ 147 µg/mL) | IC50 [2]: 6.5 µM | IC50 [3]: 17.5 µM | EC50 (Candida albicans [4]): 77 µM

Cc1nccn1CCCCc1ccc(CC(=O)N[C@H](CO)Cc2ccc(OCCC3CCCCC3)c(CCCN)c2)cc1
IC50 [5]: 29.3 µM | IC50 [6]: 62.3 µM | EC50 (Candida albicans [7]): 56 µM

H-ALYASKLS-NH2
Ki [8]: 15.3 µM

Cc1nccn1CCCCc1ccc(CC(=O)N[C@H](CO)Cc2ccc(OCCC3CCCCC3)c(CCCCN)c2)cc1
MFC (Candida albicans [1]): 150 µM (≈ 90.4 µg/mL) | IC50 [2]: 64 µM | IC50 [3]: 20 µM | EC50 (Candida albicans [4]): 49 µM
